Measured values: patent US20100010058A1, “Azoline Compounds for Combating Arthropod Pests” (BASF SE, priority 2006, published 2010)

Assays:
Assay type in all cases: in vivo
[1] = test system: Vetch Aphid (Megoura viciae); assay: Activity against Vetch Aphid (Megoura viciae), bean leaf disk microtiterplate test; details: foliar, 144 h, bean leaf disks sprayed, adult aphids, 6 days, compared to 0% mortality of untreated controls
Experimental: 2.1 Activity against Vetch Aphid (Megoura viciae)
The active compounds were formulated in DMSO/water (1:3). Bean leaf disks were placed into microtiterplates filled with 0.8% agar-agar and 2.5 ppm OPUS™. The leaf disks were sprayed with 2.5 μl of the test solution and 5 to 8 adult aphids were placed into the microtiterplates which were then closed and kept at 22-24° C. and 35-45% under fluorescent light for 6 days. Mortality was assessed on the basis of vital, reproduced aphids. Tests were replicated 2 times.

[2] = test system: Brown Planthopper (nilaparvata lugens); assay: Activity against Brown Planthopper (nilaparvata lugens), sprayed rice plants; details: assessed 24, 48 and 72 hours after treatment, in comparison with untreated controls
Experimental: 2.4 Activity against Brown Planthopper (nilaparvata lugens)
The active compounds were formulated as a 20:80 acetone:water solution. Surfactant (Alkamuls EL 620) was added at the rate of 0.1% (vol/vol).
Potted rice plants of 3-4 weeks of age are sprayed with 10 ml of the test solution using air driven hand atomizer (Devillbis atomizer) at 1.7 bar. The treated plants are allowed to dry for about 1 hour and covered with Mylar cages. The plants are inoculated with 10 adults of the specie (5 male and 5 females) and kept at 25-27° C. and 50-60% humidity for 3 days. Mortality is assed after 24, 48 and 72 hours after treatment. Dead insects are usually found in the water surface. Each treatment is replicated once.

[3] = test system: Cotton Aphid (Aphis gossypii); assay: Activity against Cotton Aphid (Aphis gossypii), cotton cotyledon dip test; details: 120 h, cotton cotyledons dipped, mortality counts after 5 days
From the text: 2.2 Activity against Cotton Aphid (Aphis gossypii)
The active compounds were formulated in acetone/water (1:1) and 100 ppm Kinetic™ surfactant. Cotton plants at the cotyledon stage (one plant per pot) were infested by placing a heavily infested leaf from the main colony on top of each cotyledon. The aphids were allowed to transfer to the host plant overnight, and the leaf used to transfer the aphids was removed. The cotyledons were dipped in the test solution and allowed to dry. After 5 days, mortality counts were made.

[4] = test system: Green Peach Aphid (Myzus persicae); assay: Activity against Green Peach Aphid (Myzus persicae), pepper plant leaf dip test; details: foliar, 120 h, pepper plant leaves dipped, after 5 days, in comparison with untreated controls
Experimental: 2.3. Activity against Green Peach Aphid (Myzus persicae)
Pepper plants in the 2nd leaf-pair stage (variety ‘California Wonder’) are infested with approximately 40 laboratory-reared aphids by placing infested leaf sections on top of the test plants. The leaf sections are removed after 24 hours. The leaves of the intact plants are dipped into gradient solutions of the test compound. Aphid mortality on the treated plants, relative to mortality on check plants, is determined after 5 days.

| Compound | mortality at 2500 ppm [1] | mortality at 300 ppm [2] | mortality at 300 ppm [3] | mortality at 300 ppm [4] |
| --- | --- | --- | --- | --- |
| Cc1cccc(CN(NC2=NCCS2)c2cccc(Cl)c2Cl)c1 [Example 7, N-(2,3-Dichloro-phenyl)-N′-(4,5-dihydro-thiazol-2-yl)-N-(3-methyl-benzyl)-hydrazine] | > 75% | ≥ 50% | > 50% | > 50% |
| CC(C)=CCN(NC1=NCCS1)c1cccc(C)c1C [Example 30, N′-(4,5-Dihydro-thiazol-2-yl)-N-(2,3-dimethyl-phenyl)-N-(3-methyl-but-2-enyl)-hydrazine] | > 75% |  |  |  |
